Laboratory results from ChEMBL document CHEMBL1250534, “Gentisides C-K: nine new neuritogenic compounds from the traditional Chinese medicine Gentiana rigescens Franch” (2010).
Activity calls are given as the source filed them. No cut-off for these calls is given here.

Assays:
[1] = test system: PC-12; assay: Neuritogenic activity in rat PC12 cells assessed as induction of neurite outgrowth at 1 to 30 uM after 48 hrs; assay type: functional
[2] = test system: PC-12; assay: Neuritogenic activity in rat PC12 cells assessed as induction of bipolar neurite outgrowth at 1 uM after 48 hrs; assay type: functional, cell-based
[3] = test system: PC-12; assay: Neuritogenic activity in rat PC12 cells assessed as induction of neurite outgrowth after 48 hrs; assay type: functional, cell-based
[4] = test system: PC-12; assay: Cytotoxicity against rat PC12 cells at 1 uM; assay type: functional, cell-based
[5] = test system: PC-12; assay: Neuritogenic activity in rat PC12 cells assessed as induction of multipolar neurite outgrowth at 1 uM after 48 hrs; assay type: functional, cell-based
[6] = test system: PC-12; assay: Neuritogenic activity in rat PC12 cells assessed as induction of neurite outgrowth at 0.03 uM after 48 hrs; assay type: functional, cell-based
[7] = test system: PC-12; assay: Neuritogenic activity in rat PC12 cells assessed as induction of neurite outgrowth at 1 uM after 48 hrs; assay type: functional
[8] = test system: PC-12; assay: Neuritogenic activity in rat PC12 cells assessed as induction of neurite outgrowth at 30 uM after 48 hrs; assay type: functional

## CC(C)CCCCCCCCCCCCCCCOC(=O)c1cccc(O)c1O [GENTISIDE D]
[1]
  Activity: 67%

## CCCCCCCCCCCCCCCCCCCCCOC(=O)c1cccc(O)c1O [GENTISIDE I]
[1]
  Activity: 67%

## CC[C@H](C)CCCCCCCCCCCCCOC(=O)c1cccc(O)c1O [GENTISIDE C]
[1]
  Activity: 67%
[2]
  Activity: Active
[3]
  Activity: Dose-dependent effect
[4]
  Activity: inactive
[5]
  Activity: Active
[6]
  Activity: Active
[7]
  Activity: 91%

## CC[C@H](C)CCCCCCCCCCCCCCCOC(=O)c1cccc(O)c1O [GENTISIDE F]
[1]
  Activity: 67%

## CCCCCCCCCCCCCCCCCCCCCCCCOC(=O)c1cccc(O)c1O [GENTISIDE K]
[8]
  Activity: 48%

## CCCCCCCCCCCCCCCCCCCCCCOC(=O)c1cccc(O)c1O [GENTISIDE J]
[1]
  Activity: 67%

## CCCCCCCCCCCCCCCCCCOC(=O)c1cccc(O)c1O [GENTISIDE E]
[1]
  Activity: 67%

## CC[C@H](C)CCCCCCCCCCCCCCCCCOC(=O)c1cccc(O)c1O [GENTISIDE H]
[1]
  Activity: 67%

## CC[C@H](C)CCCCCCCCCCCCCCCCOC(=O)c1cccc(O)c1O [GENTISIDE G]
[1]
  Activity: 67%
